Measured values: ChEMBL document CHEMBL1138588, “Hedgehog-Gli signaling pathway inhibitors as anticancer agents” (J Med Chem, 2009)

Legend:
[1] = tested on: PANC-1; test: Selectivity for human PANC1 cells over mouse C3H10/T1/2 cells
[2] = biological target: T1, Zinc finger protein GLI1 (Homo sapiens, UniProt P08151); test: Inhibition of Gli1-mediated transcription expressed in human PANC1 cells; type: cell-based; details: panc-1
T1 sequence (P08151 whole entry): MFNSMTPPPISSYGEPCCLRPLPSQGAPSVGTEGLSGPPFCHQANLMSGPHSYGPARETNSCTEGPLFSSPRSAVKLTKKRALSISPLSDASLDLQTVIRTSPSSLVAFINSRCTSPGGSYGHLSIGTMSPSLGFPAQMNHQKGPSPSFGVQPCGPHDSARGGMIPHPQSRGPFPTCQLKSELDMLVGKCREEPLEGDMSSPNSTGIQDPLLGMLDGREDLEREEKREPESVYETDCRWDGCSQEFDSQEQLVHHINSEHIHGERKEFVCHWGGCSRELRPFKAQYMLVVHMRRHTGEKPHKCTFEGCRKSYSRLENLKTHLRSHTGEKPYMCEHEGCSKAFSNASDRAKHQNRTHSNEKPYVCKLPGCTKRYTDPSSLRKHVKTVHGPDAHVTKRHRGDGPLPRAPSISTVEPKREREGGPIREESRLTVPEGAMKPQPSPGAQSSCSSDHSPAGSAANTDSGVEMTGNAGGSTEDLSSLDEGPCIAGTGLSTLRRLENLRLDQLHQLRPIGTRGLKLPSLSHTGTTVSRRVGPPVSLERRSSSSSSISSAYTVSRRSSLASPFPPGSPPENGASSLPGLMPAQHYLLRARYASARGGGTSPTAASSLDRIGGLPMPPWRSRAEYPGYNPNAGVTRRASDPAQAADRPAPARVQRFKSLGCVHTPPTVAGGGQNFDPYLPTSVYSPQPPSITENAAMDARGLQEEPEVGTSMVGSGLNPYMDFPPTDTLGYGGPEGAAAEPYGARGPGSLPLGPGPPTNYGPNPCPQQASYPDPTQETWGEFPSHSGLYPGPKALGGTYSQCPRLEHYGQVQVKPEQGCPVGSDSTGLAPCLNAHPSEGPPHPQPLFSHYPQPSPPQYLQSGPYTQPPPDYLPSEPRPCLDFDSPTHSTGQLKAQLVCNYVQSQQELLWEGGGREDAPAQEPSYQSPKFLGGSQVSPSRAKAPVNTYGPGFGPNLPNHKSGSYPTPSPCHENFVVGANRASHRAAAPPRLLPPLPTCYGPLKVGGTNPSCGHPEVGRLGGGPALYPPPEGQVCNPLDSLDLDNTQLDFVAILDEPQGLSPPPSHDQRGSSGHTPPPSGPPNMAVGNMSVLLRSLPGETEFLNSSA

[3] = tested on: Mus musculus; test: Antitumor activity against transgenic mouse medulloblastoma model with loss of function mutations in Ptch1 and Hic1 gene administered as once daily oral dose; type: functional
[4] = Selectivity for Gli over Gli2
[5] = Antitumor activity against human medulloblastoma cells; type: functional; details: Medulloblastoma cell
[6] = Growth inhibition of human L3.6p1 cells; type: functional
[7] = Growth inhibition of human Panc 05.04 cells; type: functional
[8] = tested on: BXPC-3; test: Growth inhibition of human BxPC3 cells; type: functional
[9] = Growth inhibition of human D283 MED cells; type: functional
[10] = tested on: Daoy; test: Growth inhibition of human DaOY cells; type: functional
[11] = In vivo antitumor activity against human L3.6s1 cells assessed as inhibition of tumor growth; type: functional
[12] = tested on: BXPC-3; test: In vivo antitumor activity against human BxPC3 cells assessed as inhibition of tumor growth; type: functional

For O=C1NCc2c1c1c3ccccc3[nH]c1c1[nH]c3ccccc3c21 [STAUROSPORINONE], the “Selectivity Index” value [1] was 3.
In the case of C=C(C)[C@@H]1CC[C@]2(C(=O)O)CC[C@]3(C)[C@H](CC[C@@H]4[C@@]5(C)[C@H](C=O)[C@@H](O)C(C)(C)[C@@H]5CC[C@]43C)[C@@H]12 [COLUBRINIC ACID], the IC50 [2] is reported as 38000 nM.
CC1=C2C[C@H]3[C@@H](CC[C@@H]4CNC(=O)CC[C@@]43C)[C@@H]2CC[C@@]2(C1)O[C@@H]1C[C@H](C)CN[C@H]1[C@H]2C gave an ED50 [3] of under 7.5 mg/kg.
For C[C@]12C(=O)C=CCC1=CC[C@@H]1[C@@H]2CC[C@]2(O)C(=O)O[C@@]3(C)[C@H]4C[C@]5(C)[C@@H](CO[C@@]16O[C@@]32[C@H]5C6=O)C(=O)O4 [PHYSALIN B], the Ratio IC50 [4] was 2 and the “Selectivity Index” value [1] was 3.
With C[C@@]12C[C@H]3OC(=O)[C@@H]1CO[C@]14O[C@]5([C@H]2C1=O)[C@@](O)(CC[C@H]1[C@H]4C[C@H]2O[C@]24CC=CC(=O)[C@]14C)C(=O)O[C@@]35C [PHYSALIN F] the Ratio IC50 [4] was 2 and the “Selectivity Index” value [1] was 3.
COc1cc(OC)cc(C(=O)Nc2ccc(Cl)c(-c3nc4cc(N(C)C)ccc4[nH]3)c2)c1 showed an IC50 [5] of 10000 nM.
C=C(C)[C@@H]1CC[C@]2(C(=O)O)CC[C@]3(C)[C@H](CC[C@@H]4[C@@]5(C)CC[C@H](O)C(C)(C)[C@@H]5CC[C@]43C)[C@@H]12 [BETULINIC ACID] gave an IC50 [2] of 32000 nM.
C=C(C)[C@@H]1CC[C@]2(C(=O)O)CC[C@]3(C)[C@H](CC[C@@H]4[C@@]5(C)C[C@@H](O)[C@H](O)C(C)(C)[C@@H]5CC[C@]43C)[C@@H]12 [ALPHITOLIC ACID] showed an IC50 [2] of 42000 nM.
Compound CCOc1ccc(Nc2nc(-c3c(C)nc4ccccn34)cs2)cc1 has a GI50 [6] of 3 nM, a GI50 [7] of 3 nM and a GI50 [8] of 3 nM. The GI50 [9] was 3 nM, the GI50 [10] was 3 nM and the “inhibition (INH)” value [11] was 30%. The “inhibition (INH)” value [12] was 30%.
